The target in one experiment is T1, rat CB2 (Rattus norvegicus, UniProt Q9QZN9).
T1 sequence (Q9QZN9 1-360): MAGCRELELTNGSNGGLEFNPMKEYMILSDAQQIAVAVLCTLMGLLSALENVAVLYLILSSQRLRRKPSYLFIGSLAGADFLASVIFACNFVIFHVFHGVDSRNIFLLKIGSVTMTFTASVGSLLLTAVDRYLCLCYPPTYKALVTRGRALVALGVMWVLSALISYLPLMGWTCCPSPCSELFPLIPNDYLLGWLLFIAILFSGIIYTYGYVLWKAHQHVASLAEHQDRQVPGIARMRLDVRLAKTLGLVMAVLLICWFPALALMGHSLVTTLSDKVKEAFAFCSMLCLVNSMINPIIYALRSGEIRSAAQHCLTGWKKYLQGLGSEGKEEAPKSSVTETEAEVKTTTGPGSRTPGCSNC
Briefly: rat CB2 radioligand binding assay ([3H]CP 55,940 competition). Also noted: expressed in transfected cells; host or cells: HEK293. The settings on record: HEK293 membranes, 0.5 nM [3H]CP 55,940. As to the method: (§1) The CB1 and CB2 radioligand binding assays described herein are utilized to ascertain the affinity of compounds of the present application for binding to CB2 relative to CB1 receptors.
HEK293 cells stably expressing rat CB2 receptors were grown until a confluent monolayer was formed. Briefly, the cells were harvested and homogenized in TE buffer (50 mM Tris-HCl, 1 mM MgCl2, and 1 mM EDTA) using a polytron for 2×10 second bursts in the presence of protease inhibitors, followed by centrifugation at 45,000×g for 20 minutes. The final membrane pellet was re-homogenized in storage buffer (50 mM Tris-HCl, 1 mM MgCl2, and 1 mM EDTA and 10% sucrose) and frozen at −78° C. until used. Saturation binding reactions were initiated by the addition of membrane preparation (protein concentration of 20 μg/well for rat CB2) into wells of a deep well plate containing [^3H]CP 55,940 (120 Ci/mmol, a nonselective CB agonist commercially available from Tocris) in assay buffer (50 mM Tris, 2.5 mM EDTA, 5 mM MgCl2, and 0.5 mg/mL fatty acid free BSA, pH 7.4). After 45 min incubation at 30° C., binding reaction was terminated by the addition of […] of cold assay buffer followed by rapid vacuum filtration through a UniFilter-96 GF/C filter plates (pre-soaked in 1 mg/mL BSA for 2 hours). The bound activity was counted in a TopCount using Microscint-20. Saturation experiments were conducted with twelve concentrations of [^3H]CP 55,940 ranging from 0.01 to 8 nM. Competition experiments were conducted with 0.5 nM [^3H]CP 55,940 and five concentrations of displacing ligands selected from the range of 0.01 nM to 10 μM. The addition of 10 μM unlabeled CP 55,940 (Tocris, Ellisville, Mo.) was used to assess nonspecific binding.

The target in a further experiment is T2, human CB2 receptors (Homo sapiens, UniProt P34972).
T2 construct: expressed in transfected cells; host or cells: HEK293
Briefly: human CB2 radioligand binding assay ([3H]CP 55,940 competition). As to conditions: HEK293 membranes, 0.5 nM [3H]CP 55,940. As to the method: as §1
HEK293 cells stably expressing human CB2 receptors were grown until a confluent monolayer was formed. Briefly, the cells were harvested and homogenized in TE buffer (50 mM Tris-HCl, 1 mM MgCl2, and 1 mM EDTA) using a polytron for 2×10 second bursts in the presence of protease inhibitors, followed by centrifugation at 45,000×g for 20 minutes. The final membrane pellet was re-homogenized in storage buffer (50 mM Tris-HCl, 1 mM MgCl2, and 1 mM EDTA and 10% sucrose) and frozen at −78° C. until used. Saturation binding reactions were initiated by the addition of membrane preparation (protein concentration of 5 μg/well for human CB2) into wells of a deep well plate containing [^3H]CP 55,940 (120 Ci/mmol, a nonselective CB agonist commercially available from Tocris) in assay buffer (50 mM Tris, 2.5 mM EDTA, 5 mM MgCl2, and 0.5 mg/mL fatty acid free BSA, pH 7.4). After 90 min incubation at 30° C., binding reaction was terminated by the addition of 300 μL/well of cold assay buffer followed by rapid vacuum filtration through a UniFilter-96 GF/C filter plates (pre-soaked in 1 mg/mL BSA for 2 hours). The bound activity was counted in a TopCount using Microscint-20. Saturation experiments were conducted with twelve concentrations of [^3H]CP 55,940 ranging from 0.01 to 8 nM. Competition experiments were conducted with 0.5 nM [^3H]CP 55,940 and five concentrations (0.01 nM to 10 μM) of displacing ligands. The addition of 10 μM unlabeled CP 55,940 (Tocris, Ellisville, Mo.) was used to assess nonspecific binding.

The record followed here is US8188135B2, “Compounds as cannabinoid receptor ligands” (priority 2008, dated 2012).

As usually defined, the Ki is the equilibrium dissociation constant of an inhibitor or competing ligand from its target.

Like-named read-outs stand apart in the source and are kept apart here.

T2 sequence (P34972 whole entry): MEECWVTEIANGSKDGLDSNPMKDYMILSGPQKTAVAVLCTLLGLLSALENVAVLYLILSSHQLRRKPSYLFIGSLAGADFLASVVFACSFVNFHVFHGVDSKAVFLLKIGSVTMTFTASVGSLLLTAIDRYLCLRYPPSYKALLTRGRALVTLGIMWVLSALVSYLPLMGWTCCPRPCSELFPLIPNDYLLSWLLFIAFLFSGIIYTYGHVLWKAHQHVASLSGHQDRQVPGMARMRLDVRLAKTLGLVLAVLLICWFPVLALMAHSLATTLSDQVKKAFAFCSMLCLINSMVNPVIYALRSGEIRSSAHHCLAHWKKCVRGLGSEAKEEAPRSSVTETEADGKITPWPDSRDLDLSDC

Regarding `Cn1c(C(C)(C)C)c/c(=N\C(=O)c2cc(C(F)(F)F)ccc2OCCCCS(C)(=O)=O)n1C[C@H]1CCCO1` [Example 83, N-{(3E)-5-tert-butyl-1-methyl-2-[(2R)-tetrahydrofuran-2-ylmethyl]-1,2-dihydro-3 H-pyrazol-3-ylidene}-2-[4-(methylsulfonyl)butoxy]-5-(trifluoromethyl)benzamide], the Ki is 305 nM on rat CB2 (rat CB2 (Ki, nM)) and above 1000 nM on human CB2 receptors (human CB2 (Ki, nM)).
As for `COC(=O)c1ccc(OCC(C)(C)O)c(C(=O)/N=c2\cc(C(C)(C)C)n(C)n2C[C@H]2CCCO2)c1` [Example 132, methyl 3-[({(3E)-tert-butyl-1-methyl-2-[(2R)-tetrahydrofuran-2-ylmethyl]-1,2-dihydro-3H-pyrazol-3-ylidene}amino)carbonyl]-4-(2-hydroxy-2-methylpropoxy)benzoate], the figures for the Ki on rat CB2 (read-out: rat CB2 (Ki)) and at human CB2 receptors (read-out: human CB2 (Ki)) were 51 nM and 127 nM, respectively.
For `CCCCn1ccc(C(C)(C)C)c/c1=N\C(=O)c1cc(C(F)(F)F)ccc1OCC(C)(C)O` [Example 92, N-[(2E)-1-butyl-4-tert-butylpyridin-2(1H)-ylidene]-2-(2-hydroxy-2-methylpropoxy)-5-(trifluoromethyl)benzamide], the Ki on rat CB2 (rat CB2 (Ki, nM)) worked out at 47 nM; at human CB2 receptors (human CB2 (Ki, nM)), 73 nM.
The like results for `Cn1c(C(C)(C)C)c/c(=N\C(=O)c2cc(C(F)(F)F)ccc2OCC(C)(C)O)n1CCCC(F)(F)F` [Example 135, N-[(3E)-5-tert-butyl-1-methyl-2-(4,4,4-trifluorobutyl)-1,2-dihydro-3H-pyrazol-3-ylidene]-2-(2-hydroxy-2-methylpropoxy)-5-(trifluoromethyl)benzamide] were, in that order, 5.5 nM and 23 nM.
For `CN(C[C@@H]1CCCO1)c1ccc(C(F)(F)F)cc1C(=O)/N=c1\cc(C(C)(C)C)n(C)n1C[C@H]1CCCO1` [Example 26, N-{(3E)-5-tert-butyl-1-methyl-2-[(2R)-tetrahydrofuran-2-ylmethyl-]-1,2-dihydro-3H-pyrazol-3-ylidene}-2-{methyl[(2S)-tetrahydrofuran-2-ylmethyl]amino}-5-(trifluoromethyl)benzamide], in that order: 343 nM and above 1000 nM.
The like results for `CCCCN1CC(C)(C)S/C1=N\C(=O)c1cc(C(F)(F)F)ccc1OCC(C)(C)O` [Example 94, N-[(2Z)-3-butyl-5,5-dimethyl-1,3-thiazolidin-2-ylidene]-2-(2-hydroxy-2-methylpropoxy)-5-(trifluoromethyl)benzamide] were, in that order, 5 nM and 3.9 nM.
In the case of `Cn1c(C(C)(C)C)c/c(=N\C(=O)c2cc(Br)ccc2OCC(C)(C)O)n1C[C@H]1CCCO1` [Example 128, 5-bromo-N-{(3E)-5-tert-butyl-1-methyl-2-[(2R)-tetrahydrofuran-2-ylmethyl]-1,2-dihydro-3H-pyrazol-3-ylidene}-2-(2-hydroxy-2-methylpropoxy)benzamide], the Ki on rat CB2 (rat CB2 (Ki, nM)) stood at 4.9 nM; at human CB2 receptors (human CB2 (Ki, nM)), 15 nM.
The like results for `COCCCn1/c(=N/C(=O)c2cc(C(F)(F)F)ccc2OCC(C)(C)O)cc(C(C)(C)C)n1C` [Example 122, N-[(3E)-5-tert-butyl-2-(3-methoxypropyl)-1-methyl-1,2-dihydro-3H-pyrazol-3-ylidene]-2-(2-hydroxy-2-methylpropoxy)-5-(trifluoromethyl)benzamide] were, in that order, 27 nM and 91 nM.
In the case of `Cn1c(C(C)(C)C)c/c(=N\C(=O)c2cc(C(F)(F)F)ccc2OCC(C)(C)O)n1CC1CCOCC1` [Example 95, N-[(3E)-5-tert-butyl-1-methyl-2-(tetrahydro-2H-pyran-4-ylmethyl)-1,2-dihydro-3 H-pyrazol-3-ylidene]-2-(2-hydroxy-2-methylpropoxy)-5-(trifluoromethyl)benzamide], the Ki is 331 nM on rat CB2 (read-out: rat CB2 (Ki)) and above 1000 nM at human CB2 receptors (read-out: human CB2 (Ki)).
For `CCCCn1/c(=N/C(=O)c2cc(C(F)(F)F)ccc2SCC(C)(C)O)cc(C(C)(C)C)n1C` [Example 137], the Ki on rat CB2 (rat CB2 (Ki, nM)) is 26 nM; at human CB2 receptors (human CB2 (Ki, nM)), 55 nM.
As to `Cn1c(C(C)(C)C)c/c(=N\C(=O)c2cc(C(F)(F)F)ccc2OC[C@@H](O)CNC(C)(C)C)n1C[C@H]1CCCO1` [Example 105, 2-{[(2S)-3-(tert-butylamino)-2-hydroxypropyl]oxy}-N-{(3E)-5-tert-butyl-1-methyl-2-[(2R)-tetrahydrofuran-2-ylmethyl]-1,2-dihydro-3H-pyrazol-3-ylidene}-5-(trifluoromethyl)benzamide], the Ki on rat CB2 (read-out: rat CB2 (Ki)) was 406 nM; on human CB2 receptors (read-out: human CB2 (Ki)) it was above 1000 nM.
Turning to `CC(C)(O)COc1ccc(C(F)(F)F)cc1C(=O)/N=c1\sc(C(C)(C)C)nn1CC1CCO1` (stereo not shown) [Example 96, N-[(2Z)-5-tert-butyl-3-(oxetan-2-ylmethyl)-1,3,4-thiadiazol-2(3H)-ylidene]-2-(2-hydroxy-2-methylpropoxy)-5-(trifluoromethyl)benzamide], the Ki on rat CB2 (rat CB2 (Ki, nM)) was 6.1 nM; at human CB2 receptors (human CB2 (Ki, nM)), 9.4 nM.
Regarding `CCCn1/c(=N/C(=O)c2cc(C(F)(F)F)ccc2OCC(C)(C)O)cc(C(C)(C)C)n1C` [Example 125, N-[(3E)-5-tert-butyl-1-methyl-2-propyl-1,2-dihydro-3H-pyrazol-3-ylidene]-2-(2-hydroxy-2-methylpropoxy)-5-(trifluoromethyl)benzamide], the Ki was 86 nM at rat CB2 (rat CB2 (Ki, nM)) and 211 nM on human CB2 receptors (read-out: human CB2 (Ki)).
Take `C[C@@H](O)[C@@H](C)Oc1ccc(C(F)(F)F)cc1C(=O)/N=c1\cc(C(C)(C)C)n(C)n1C[C@H]1CCCO1` [Example 104, N-{(3E)-5-tert-butyl-1-methyl-2-[(2R)-tetrahydrofuran-2-ylmethyl]-1,2-dihydro-3 H-pyrazol-3-ylidene}-2-{[(1R,2R)-2-hydroxy-1-methylpropyl]oxy}-5-(trifluoromethyl)benzamide]: the Ki is 317 nM on rat CB2 (read-out: rat CB2 (Ki)) and above 1000 nM at human CB2 receptors (read-out: human CB2 (Ki)).
The like results for `CSC(C)(C)COc1ccc(C(F)(F)F)cc1C(=O)/N=c1\cc(C(C)(C)C)n(C)n1C[C@H]1CCCO1` [Example 64, N-{(3E)-5-tert-butyl-1-methyl-2-[(2R)-tetrahydrofuran-2-ylmethyl]-1,2-dihydro-3H-pyrazol-3-ylidene}-2-[2-methyl-2-(methylthio)propoxy]-5-(trifluoromethyl)benzamide] were, in that order, 114 nM and 328 nM.
As to `CC(C)(C)c1nn(CCCC#N)/c(=N/C(=O)c2cc(C(F)(F)F)ccc2OCCCC#N)s1` [Example 85, N-[(2Z)-5-tert-butyl-3-(3-cyanopropyl)-1,3,4-thiadiazol-2(3H)-ylidene]-2-(3-cyanopropoxy)-5-(trifluoromethyl)benzamide], the Ki on rat CB2 (rat CB2 (Ki, nM)) is 2.5 nM; at human CB2 receptors (human CB2 (Ki, nM)), 20 nM.
With `CCCCn1cc(C(C)(C)C)o/c1=N\C(=O)c1cc(C(F)(F)F)ccc1OCC(C)(C)O` [Example 93, N-[(2Z)-3-butyl-5-tert-butyl-1,3-oxazol-2(3H)-ylidene]-2-(2-hydroxy-2-methylpropoxy)-5-(trifluoromethyl)benzamide], the Ki on rat CB2 (rat CB2 (Ki, nM)) was 3.9 nM; on human CB2 receptors (human CB2 (Ki, nM)), 3.6 nM.
